Results reported in patent US20030109546A1, “Treatment of psychotic disorders comprising co-therapy with anticonvulsant derivatives and atypical antipsychotics” (priority 2001, published 2003).

Experiments:
schizophrenia [1] = test: Example 3 case study: augmentation of clozapine treatment; type: in vivo, human
Text: The patient was a morbidly obese person, who was first hospitalized in 1966 for psychotic symptoms, leading to a psychiatric diagnosis of schizophrenia. Their primary symptoms consisted of a set of strange and elaborate ideas about transmitting their thoughts to others, thoughts that they had invented “invisible steel” which was being used by the CIA and aliens, and a high degree of suspiciousness about the discriminatory intent of their clergyman and the local police. They denied any overt hallucinations, although they acknowledged “weird noises” associated with aliens attempting to contact them. At initial hospitalization, the patient was also profoundly confused and disorganized in their thought processes. Over the next two decades they were hospitalized four more times with essentially this same clinical picture, eventually being admitted in 1989 to a state hospital for long-term treatment where they remain to this day.
During their five hospitalizations the patient was treated with a variety of anti-psychotic medications, often in various combinations and dosages. In 1994 they were characterized as being treatment refractory according to the Kane criteria and enrolled in an NIMH sponsored study of three different doses of clozapine. As a participant in this study the patient received 100, 300, 600 mg, each for a 3-month period.
The patient was nonetheless continued on a 100 mg dose of clozapine, with the intent of using a variety of different augmentation strategies to possibly improve their clinical state. […] Throughout this period, the patient's strange and bizarre ideas persisted. They remained emotionally withdrawn, and required regular PRN medication to reduce their agitation on the ward.
Toward the end of the year 2000, the patient was treated with a drug regimen of 100 mg of clozapine, 2 mg of risperidone, and 750 mg of valproic acid. At this time, the patient agreed to augment their treatment with topiramate. The valproic acid was gradually withdrawn, and on Dec. 5, 2000 the patient was started on 50 mg of topiramate. The topiramate was increased at a rate of 50 mg per week up to a daily dosage of 200 mg where they remained for over four months. Within the first 2-3 weeks of topiramate treatment several important clinical changes were observed. […] Rather than being very certain about their ability to transmit thought to others they now are not sure that this is possible. They were also no longer certain that they actually invented “invisible steel”, but instead mostly only believed that they once thought it, although occasionally the delusional belief breaks though into their thinking. […] Second, as a result of treatment with topiramate the patient's agitation was decreased and PRN medication for agitation was no longer required.

[2] = tested on: schizophrenia, undifferentiated type; test: Example 4 case study: topiramate added to haloperidol and risperidone; type: in vivo, human
Text: The patient was a person, who was first hospitalized in 1983 on an involuntary basis-due to their inability to care for themself. Upon admission, they were described as paranoid, suspicious, agitated, and delusional, and was given the diagnosis of schizophrenia, undifferentiated type. They expressed persecutory delusions saying that the Mafia was going to hurt them. They heard voices telling them that someone was going to rape their parent. After one year of hospitalization, they were discharged into the community, where they soon became unstable resulting in two suicide attempts by hanging and two more short-term hospitalizations. In 1988 the patient was admitted into a state hospital for long-term treatment where they remain to this day. Over the past decade or more, their clinical picture had remained unchanged. They had been treated with numerous anti-psychotic medications, including the newer a typical medicines with little or no benefit. Their high level of agitation and persecutory delusions often propelled them into confrontations with staff and other patients, and they were regularly treated with PRN medications or placed into seclusion for their behavior. […] The topiramate dosage was titrated at a rate of 50 mg per week up to a daily dosage of 150 mg, at which dose the patient remained for a period of 4 months. Within the first month of treatment with topiramate several important clinical changes began to emerge. […] Within 1-2 weeks, the patient was no longer in seclusion and the use of PRN medication for agitation became very rare. Second, the patient's expressions persecutory delusions or suspiciousness decreased, and they were able to join into group activities on the unit.

[3] = tested on: simple and complex partial seizures and secondarily generalized seizures; details: adjunctive therapy or monotherapy; cited from earlier work
schizoaffective disorder = test: Example 1 case study: topiramate added to olanzapine-containing regimen; type: in vivo, human
Text: The patient was a single person, diagnosed with schizoaffective disorder, who presented with a variety of problems including disorganized behavior, suspiciousness, ideas of reference, stereotyped and obsessional thinking, lack of motivation, poor hygiene, poverty of speech, oppositional behavior and intermittent suicide attempts. The patient spent virtually the entire day in bed and was awake through the night. […] Despite continuous psychiatric and pharmacological treatment, the patient remained substantially disabled by withdrawal, apathy, poverty of speech, poor hygiene, anhedonia and suspiciousness. […] In addition, the patient was seen weekly in individual psychotherapy. There were no additional active medical problems. The patient was started on topiramate with dosages increased over a period of six weeks to 400 mg/day. […] In addition, the patient's residual positive symptoms, including primary suspiciousness and ideas of reference, were improved and the patient became less fearful of interacting with other. Patient's social functioning was improved, with the patient able to hold part-time employment. […] The patient maintained their part-time employment and engaged in productive social activity several times a week. […] (Lorazepam was removed with sustained improvement.)

schizophrenia [4] = test: Example 2 open label pilot study on topiramate as adjunctive therapy in schizophrenia; type: in vivo, human; details: Patient 1
Method: Results from Open Label Pilot Study on Topiramate as Adjunctive Therapy in the Treatment of Schizophrenia
The patient was a person who met DSM-IV diagnostic criteria for chronic undifferentiated schizophrenia. […] The patient had been maintained on a stable regimen of 20 mg olanzapine prior to initiation of the study. […] Although the patient lived in a group home with other residents, they preferred to spend most of their free time alone, watching television or staying in their room, and went to bed between 7 and 8 o'clock each night. The patient had limited social interactions in the partial hospitalization program, initiating contact with only a few friends. The patient was intrusive during groups and was unable to empathize with others within the group.
The patient was begun on topiramate at an initial dose of 25 mg/day, titrating to an optimal dosage level of 175 mg/day, which was given in two divided doses during an eight week maintenance medication phase of a clinical trial.
They also became less stereotyped in their speech, with very infrequent references to their previous recurrent theme of golf. After 12 weeks of adjunctive therapy with topiramate, the patient also appeared more realistic about their golfing skills, stating than they were an “average” golfer, as opposed to their previous assertions about winning several club tournaments.
The patient also resumed going to bed around 6:30 or 7:00 pm each night.

seizures = details: several rodent models of epilepsy; cited from earlier work
kindled epilepsy = details: animal model of kindled epilepsy; cited from earlier work
schizophrenia [5] = test: Example 2 open label pilot study on topiramate as adjunctive therapy in schizophrenia; type: in vivo, human
[6] = period of treatment that included topiramate
[7] = topiramate 50 to 150 mg daily added to haloperidol and risperidone
[8] = topiramate up to 400 mg/day added to olanzapine-containing regimen
[9] = topiramate 175 mg/day added to 20 mg olanzapine
[10] = topiramate 25 to 175 mg/day added to 20 mg olanzapine
[11] = topiramate 50 to 200 mg daily added to 100 mg clozapine, 2 mg risperidone

Cc1nc2n(c(=O)c1CCN1CCC(c3noc4cc(F)ccc34)CC1)CCCC2 [risperidone, 3-[2-[4-(6-fluoro-1,2-benzisoxazol-3-yl)piperidino]ethyl]-2-methyl-6,7,8,9-tetrahydro-4H-pyrido-[1,2-a]pyrimidin-4-one]
adverse event when added to clozapine treatment (schizophrenia [1]; standard dose added to 100 mg clozapine): severe tremors
effect when added to clozapine treatment (schizophrenia [1]; standard doses added to 100 mg clozapine): little effect
benefit of clozapine augmentation with low dose risperidone (schizophrenia [1]; study in 2000): lack of treatment benefit

CCCC(CCC)C(=O)O [Depakote, divalproex sodium]
benefit when added to clozapine treatment (schizophrenia [1]; up to 5000 mg added to clozapine, 1999): little benefit

CN1CCN(C2=Nc3cc(Cl)ccc3Nc3ccccc32)CC1 [clozapine, 8-chloro-11-(4-methyl-1-piperazinyl)-5H-dibenzo[b,e][1,4]diazepine]
adverse event (schizophrenia [1]; 900 mg of clozapine): led to a seizure
response to treatment (schizophrenia [1]; clozapine 100, 300, 600 mg, each for 3 months (NIMH study)): did not show any meaningful response

CC1(C)O[C@@H]2[C@@H](CO[C@@]3(COS(N)(=O)=O)OC(C)(C)O[C@@H]23)O1 [topiramate, 2,3:4,5-bis-O-(1-methylethylidene)-β-D-fructopyranose sulfamate]
intensity of positive symptoms (auditory hallucinations, delusions of persecution) [2, 6]: reduced in occurrence and severity
social withdrawal [2, 6]: less socially withdrawn
expressions of persecutory delusions or suspiciousness [2, 7]: decreased
negative symptoms [2, 7]: fewer negative symptoms
level of agitation ([2]; topiramate 50 to 150 mg daily added to haloperidol and risperidone, within first month): reduced dramatically
efficacy in treating simple and complex partial seizures and secondarily generalized seizures [3]: effective
maintenance of improvement (schizoaffective disorder; after 5 months, topiramate decreased to 300 mg/day): improvements maintained
maintenance of improvement (schizoaffective disorder; after 10 months, 300 mg topiramate, 7.5 mg olanzapine, 400 mg fluvoxamine, 1 mg lorazepam daily): improvement was still sustained
maintenance of improvement (schizoaffective disorder; after more than 2 years, 300 mg topiramate, 7.5 mg olanzapine, 400 mg fluvoxamine daily): remained improved
negative symptoms (eye contact, attention, concentration, poverty of speech, grooming, hygiene, withdrawal) (schizoaffective disorder; topiramate increased over six weeks to 400 mg/day, added to fluvoxamine, Depakote, lorazepam, olanzapine 10 mg, over 8 weeks): significant improvement
residual positive symptoms (suspiciousness, ideas of reference) (schizoaffective disorder; [8]): improved
social functioning (schizoaffective disorder; [8]): improved
change in the Positive or General Scales of the PANSS (schizophrenia [4]; [9]): did not show any consistent, significant change
decrease in the Negative Scale score (PANSS) from baseline (schizophrenia [4]; [9]): 7 points
tolerability (schizophrenia [4]; [10]): well tolerated
vital signs and laboratory values (schizophrenia [4]; [10]): remained within the normal range
Negative Scale score after discontinuation of topiramate (schizophrenia [4]; upon completion of the study protocol): increase in the Negative Scale score
clinical state (opinion of the treatment team) (schizophrenia [1]; addition of topiramate): clear and important degree of improvement
level of suspiciousness (schizophrenia [1]; [11]): decreased
thought organisation / conversation (schizophrenia [1]; [11]): able to engage in a logical conversation
agitation (schizophrenia [1]; topiramate 50 to 200 mg daily added to 100 mg clozapine, 2 mg risperidone, PRN medication no longer required): decreased
level of preoccupation with delusional thoughts (schizophrenia [1]; topiramate 50 to 200 mg daily added to 100 mg clozapine, 2 mg risperidone, within first 2-3 weeks): obviously reduced
seizure block (seizures): effectively block seizures
seizure block (kindled epilepsy): effectively block seizures
response with regards to negative symptoms (schizophrenia [5]; Patients 2 & 3, adjunctive topiramate): did not respond significantly
positive symptoms (schizophrenia [5]; Patients 2 & 3, over the course of the trial): decreases in positive symptoms
negative symptoms (schizophrenia [5]; one of Patients 2 & 3, fluctuated during drug maintenance period): limited decrease
side effect potentially attributable to topiramate (schizophrenia [5]; second of Patients 2 & 3, topiramate 100 mg/day): difficulties with verbal fluency and word finding
negative symptoms (schizophrenia [5]; second of Patients 2 & 3, topiramate 100 mg/day lowered to 75 mg/day, dropped from study): significant decrease
